Measured values from patent publication US11957783B2, “Topical immunosensitizers to treat viral and fungal infections” (Squarex, LLC, priority 2018, dated 2024).

Test system: peripheral blood mononuclear cells (PBMC)
Assay: Cytokine and immune-function gene expression of PBMC in vitro (qRT-PCR, 41 immune-related genes)
Assay type: cell-based, human
Details: for Ratio of absolute IFNG gene expression in group A vs. Groups B + C pooled: group A day 57 after SADBE
Protocol: After a screening visit at which blood was drawn to test for IgG antibody against HSV-1 and subjects were interviewed for inclusion/exclusion criteria, selected subjects returned for blood draws on day 1. After the blood draw on day 1, subjects in group A only were dosed with SADBE. A petrolatum donut was applied with a cotton swab to form about a 1 cm diameter donut on skin on the inner aspect of the upper arm. Then a separate cotton swab was dipped in a 2% SADBE solution (w/v) in DMSO, and the swab was then used to apply about 10-20 mg of solution over about a 1 cm diameter circle within the petrolatum donut. Immediately after application, the application site was covered with TEGADERM. Subjects were advised to remove the TEGADERM and rinse and wipe the spot three hours later. The group A subjects then returned for blood draws on days 15 and 57 and were queried about adverse events on those dates.
PBMC were isolated using SepMate PBMC isolation tubes (Stem Cell Technologies, Vancouver, Canada) and Ficoll-Paque according to the manufacturer's instructions. PBMC were isolated and suspended in negative control medium at 2 million cells/ml. PBMC suspension (100 μL) was added to 100 μL of medium in quadruplicate in 96-well plates. The plates were prepared in advance and stored at −70° C. The wells were in five different conditions in quadruplicate with these final concentrations after addition of the 100 μL of PBMC suspension in negative control medium. • 1. Negative control in medium (RPMI with glutamine and pen/strep, supplemented with 10% human A/B serum). • 2. Medium plus 16 μg/ml protein from heat-inactivated HSV-1-infected Vero cell extracts. • 3. Medium plus heat-inactivated HSV-1 cell-free virus at a final 7.5 million pfu/ml. • 4. Medium plus Candida cell extract. (Greer item number M15A50, 20,000 pnu/ml allergenic extract mixed molds Candida albicans, was diluted 1/50 into medium). • 5. Positive control, medium plus 10 μg/ml concanavalin A.
Two plates were created for each subject at each collection point. One plate was incubated for 2 days at 37° C. in a humidified 5% CO2 atmosphere and then RNA was isolated from the pooled contents of the 4 wells of a given condition for a specific patient, and the RNA was stored at −70° C. and subsequently used for quantitative real time PCR analysis of gene expression of 41 immune-related genes.
As noted above, after 2 days of growth of the PBMC in a 37° C. humidified 5% CO2 incubator in a 96-well plate, four wells of a single condition (negative control, positive control, heat-inactivated HSV-1, HSV-1-infected cell extracts, or Candida extract) with cells from a single subject (200 μL in each well) were pooled, and the RNA was immediately isolated with Trizol reagent and chloroform by Qiagen RNeasy MiniElute clean up kit Qiagen cat #74204, according to manufacturer's instructions into a final volume of 13 μL, and then flash frozen on powdered dry ice, and stored at −70° C. in aliquots of 3 μL for RNA quantification and 10 μL for PCR analysis.
RNA was preamplified with the Qiagen RT2 PreAMP cDNA synthesis kit (Ref. 330451) and custom RT2 PreAmp primer mix (Ref. 330141) starting with about 50 ng RNA according to the procedure of RT preamp cDNA synthesis handbook date March 2011, pages 17-20. The amplification reactions (final 120 μL) were frozen at −70° C. and used for qPCR analysis the next day.
qPCR was done with the Qiagen RT PCR profiler gene analysis kit (catalog number 330451) using RT2 Sybr Green Rox qPCR Mastermix (24) (Part 330523) and Custom RT2 PCR array plates (Ref. 330171). For this 675 μL 2×RT2 SYBR green mastermix, 51 μL pre-AMP synthesis reaction, and 623 μL RNase free water were mixed, and then 25 μL of the mixture was added to 48 wells on the left or right half of the custom PCR plate. The PCR instrument was Applied Biosystems 7900HT fast real time PCR. […]

[1] = PBMC + Candida extract, group A day 57 vs day 1 (pre-dose), one topical 2% SADBE dose

CCCCOc1c(OCCCC)c(=O)c1=O [SADBE, 3,4-Dibutoxy-3-cyclobutene-1,2-dione]
LTA ratio of PBMC absolute gene expression day 57/day 1 (Group A, Neg. control): 0.73
LYZ ratio of PBMC absolute gene expression day 15/day 1 (Group A, Neg. control): 1.18
LYZ ratio of PBMC absolute gene expression day 57/day 1 (Group A, Neg. control): 0.55
MX1 ratio of PBMC absolute gene expression day 15/day 1 (Group A, Neg. control): 0.81
MX1 ratio of PBMC absolute gene expression day 57/day 1 (Group A, Neg. control): 0.47
NOD1 ratio of PBMC absolute gene expression day 15/day 1 (Group A, Neg. control): 1.14
NOD1 ratio of PBMC absolute gene expression day 57/day 1 (Group A, Neg. control): 0.87
SPP1 ratio of PBMC absolute gene expression day 15/day 1 (Group A, Neg. control): 1.35
SPP1 ratio of PBMC absolute gene expression day 57/day 1 (Group A, Neg. control): 2.38
STAT1 ratio of PBMC absolute gene expression day 15/day 1 (Group A, Neg. control): 0.86
STAT1 ratio of PBMC absolute gene expression day 57/day 1 (Group A, Neg. control): 1.29
STAT4 ratio of PBMC absolute gene expression day 15/day 1 (Group A, Neg. control): 0.94
STAT4 ratio of PBMC absolute gene expression day 57/day 1 (Group A, Neg. control): 0.88
TNF ratio of PBMC absolute gene expression day 15/day 1 (Group A, Neg. control): 0.91
TNF ratio of PBMC absolute gene expression day 57/day 1 (Group A, Neg. control): 1.15
TNFSF10 ratio of PBMC absolute gene expression day 15/day 1 (Group A, Neg. control): 0.93
TNFSF10 ratio of PBMC absolute gene expression day 57/day 1 (Group A, Neg. control): 1
TNFSF13B ratio of PBMC absolute gene expression day 15/day 1 (Group A, Neg. control): 1.03
TNFSF13B ratio of PBMC absolute gene expression day 57/day 1 (Group A, Neg. control): 0.67
CCL2 ratio of PBMC absolute gene expression day 15/day 1 (Group A, Virus): 0.88
CCL2 ratio of PBMC absolute gene expression day 57/day 1 (Group A, Virus): 1.71
CCL3 ratio of PBMC absolute gene expression day 15/day 1 (Group A, Virus): 0.84
CCL3 ratio of PBMC absolute gene expression day 57/day 1 (Group A, Virus): 3.73
CCL7 ratio of PBMC absolute gene expression day 15/day 1 (Group A, Virus): 0.72
CCL7 ratio of PBMC absolute gene expression day 57/day 1 (Group A, Virus): 1.81
CCR5 ratio of PBMC absolute gene expression day 15/day 1 (Group A, Virus): 0.87
CCR5 ratio of PBMC absolute gene expression day 57/day 1 (Group A, Virus): 1.35
CD80 ratio of PBMC absolute gene expression day 15/day 1 (Group A, Virus): 0.79
CD80 ratio of PBMC absolute gene expression day 57/day 1 (Group A, Virus): 1.25
CXCL2 ratio of PBMC absolute gene expression day 15/day 1 (Group A, Virus): 0.91
CXCL2 ratio of PBMC absolute gene expression day 57/day 1 (Group A, Virus): 1.58
CXCL5 ratio of PBMC absolute gene expression day 15/day 1 (Group A, Virus): 0.94
CXCL5 ratio of PBMC absolute gene expression day 57/day 1 (Group A, Virus): 2.52
CXCL9 ratio of PBMC absolute gene expression day 15/day 1 (Group A, Virus): 1.42
CXCL9 ratio of PBMC absolute gene expression day 57/day 1 (Group A, Virus): 2.5
CXCL10 ratio of PBMC absolute gene expression day 15/day 1 (Group A, Virus): 0.74
CXCL10 ratio of PBMC absolute gene expression day 57/day 1 (Group A, Virus): 1.00
CXCL11 ratio of PBMC absolute gene expression day 15/day 1 (Group A, Virus): 0.34
CXCL11 ratio of PBMC absolute gene expression day 57/day 1 (Group A, Virus): 0.40
DDX58 ratio of PBMC absolute gene expression day 15/day 1 (Group A, Virus): 0.66
DDX58 ratio of PBMC absolute gene expression day 57/day 1 (Group A, Virus): 0.95
FOXP3 ratio of PBMC absolute gene expression day 15/day 1 (Group A, Virus): 1.27
FOXP3 ratio of PBMC absolute gene expression day 57/day 1 (Group A, Virus): 2.46
GATA3 ratio of PBMC absolute gene expression day 15/day 1 (Group A, Virus): 0.89
GATA3 ratio of PBMC absolute gene expression day 57/day 1 (Group A, Virus): 0.32
ICAM1 ratio of PBMC absolute gene expression day 15/day 1 (Group A, Virus): 1.01
ICAM1 ratio of PBMC absolute gene expression day 57/day 1 (Group A, Virus): 1.07
IFNA1 ratio of PBMC absolute gene expression day 15/day 1 (Group A, Virus): 0.58
IFNA1 ratio of PBMC absolute gene expression day 57/day 1 (Group A, Virus): 1.34
IFNB1 ratio of PBMC absolute gene expression day 15/day 1 (Group A, Virus): 0.78
IFNB1 ratio of PBMC absolute gene expression day 57/day 1 (Group A, Virus): 0.87
IFNG ratio of PBMC absolute gene expression day 15/day 1 (Group A, Virus): 1.91
IFNG ratio of PBMC absolute gene expression day 57/day 1 (Group A, Virus): 11.01
IL1B ratio of PBMC absolute gene expression day 15/day 1 (Group A, Virus): 0.77
IL1B ratio of PBMC absolute gene expression day 57/day 1 (Group A, Virus): 5.09
IL1R1 ratio of PBMC absolute gene expression day 15/day 1 (Group A, Virus): 0.74
IL1R1 ratio of PBMC absolute gene expression day 57/day 1 (Group A, Virus): 0.97
IL1RN ratio of PBMC absolute gene expression day 15/day 1 (Group A, Virus): 0.77
IL1RN ratio of PBMC absolute gene expression day 57/day 1 (Group A, Virus): 1.48
IL2 ratio of PBMC absolute gene expression day 15/day 1 (Group A, Virus): 1.43
IL2 ratio of PBMC absolute gene expression day 57/day 1 (Group A, Virus): 2.11
IL4 ratio of PBMC absolute gene expression day 15/day 1 (Group A, Virus): 0.80
IL4 ratio of PBMC absolute gene expression day 57/day 1 (Group A, Virus): 1.32
IL5 ratio of PBMC absolute gene expression day 15/day 1 (Group A, Virus): 0.76
IL5 ratio of PBMC absolute gene expression day 57/day 1 (Group A, Virus): 0.56
IL8 ratio of PBMC absolute gene expression day 15/day 1 (Group A, Virus): 1.13
IL8 ratio of PBMC absolute gene expression day 57/day 1 (Group A, Virus): 3.3
IL10 ratio of PBMC absolute gene expression day 15/day 1 (Group A, Virus): 0.74
IL10 ratio of PBMC absolute gene expression day 57/day 1 (Group A, Virus): 2.29
IL12A ratio of PBMC absolute gene expression day 15/day 1 (Group A, Virus): 0.94
IL12A ratio of PBMC absolute gene expression day 57/day 1 (Group A, Virus): 1.48
IL12B ratio of PBMC absolute gene expression day 15/day 1 (Group A, Virus): 0.59
IL12B ratio of PBMC absolute gene expression day 57/day 1 (Group A, Virus): 2.08
IL13 ratio of PBMC absolute gene expression day 15/day 1 (Group A, Virus): 1.43
IL13 ratio of PBMC absolute gene expression day 57/day 1 (Group A, Virus): 3.02
IL15 ratio of PBMC absolute gene expression day 15/day 1 (Group A, Virus): 1.01
IL15 ratio of PBMC absolute gene expression day 57/day 1 (Group A, Virus): 1.54
IL16 ratio of PBMC absolute gene expression day 15/day 1 (Group A, Virus): 0.84
IL16 ratio of PBMC absolute gene expression day 57/day 1 (Group A, Virus): 0.82
JAK2 ratio of PBMC absolute gene expression day 15/day 1 (Group A, Virus): 0.84
JAK2 ratio of PBMC absolute gene expression day 57/day 1 (Group A, Virus): 1.26
LTA ratio of PBMC absolute gene expression day 15/day 1 (Group A, Virus): 1.26
LTA ratio of PBMC absolute gene expression day 57/day 1 (Group A, Virus): 1.84
LYZ ratio of PBMC absolute gene expression day 15/day 1 (Group A, Virus): 1.04
LYZ ratio of PBMC absolute gene expression day 57/day 1 (Group A, Virus): 0.53
MX1 ratio of PBMC absolute gene expression day 15/day 1 (Group A, Virus): 0.49
MX1 ratio of PBMC absolute gene expression day 57/day 1 (Group A, Virus): 0.66
NOD1 ratio of PBMC absolute gene expression day 15/day 1 (Group A, Virus): 0.85
NOD1 ratio of PBMC absolute gene expression day 57/day 1 (Group A, Virus): 1.14
SPP1 ratio of PBMC absolute gene expression day 15/day 1 (Group A, Virus): 1.64
SPP1 ratio of PBMC absolute gene expression day 57/day 1 (Group A, Virus): 15.29
STAT1 ratio of PBMC absolute gene expression day 15/day 1 (Group A, Virus): 0.80
STAT1 ratio of PBMC absolute gene expression day 57/day 1 (Group A, Virus): 1.41
STAT4 ratio of PBMC absolute gene expression day 15/day 1 (Group A, Virus): 1.03
STAT4 ratio of PBMC absolute gene expression day 57/day 1 (Group A, Virus): 1.69
TNF ratio of PBMC absolute gene expression day 15/day 1 (Group A, Virus): 0.97
TNF ratio of PBMC absolute gene expression day 57/day 1 (Group A, Virus): 1.19
TNFSF10 ratio of PBMC absolute gene expression day 15/day 1 (Group A, Virus): 0.68
TNFSF10 ratio of PBMC absolute gene expression day 57/day 1 (Group A, Virus): 1.01
TNFSF13B ratio of PBMC absolute gene expression day 15/day 1 (Group A, Virus): 0.77
TNFSF13B ratio of PBMC absolute gene expression day 57/day 1 (Group A, Virus): 1.23
Ratio of absolute IFNG gene expression in group A vs. Groups B + C pooled (HSV-infected cell extracts): 1.896
Ratio of absolute IFNG gene expression in group A vs. Groups B + C pooled (Neg Control medium): 1.190
ratio of absolute expression in A57 vs. A1: CCL2 [1]: 1.16
ratio of absolute expression in A57 vs. A1: CCL3 [1]: 1.79
ratio of absolute expression in A57 vs. A1: CCL7 [1]: 2.03
ratio of absolute expression in A57 vs. A1: CCR5 [1]: 1.42
ratio of absolute expression in A57 vs. A1: CD80 [1]: 1.57
ratio of absolute expression in A57 vs. A1: CXCL2 [1]: 1.1
ratio of absolute expression in A57 vs. A1: CXCL5 [1]: 1.45
ratio of absolute expression in A57 vs. A1: CXCL9 [1]: 14.21
ratio of absolute expression in A57 vs. A1: CXCL10 [1]: 12.8
ratio of absolute expression in A57 vs. A1: CXCL11 [1]: 2.53
ratio of absolute expression in A57 vs. A1: DDX58 [1]: 1.29
